Measurements from patent publication US5223421A, “Identification of methionine Nα-acetyltransferase” (The General Hospital Corporation, priority 1990, dated 1993).

Assays:
[1] = system: methionine N^α -acetyltransferase (M-N^α -AT); experiment: Relative activity of M-N^α -AT for N^α -acetylation of synthetic peptides; assay type: biochemical, Saccharomyces cerevisiae; parameters: tested at 50 µM; details: Table 7, influence of the penultimate amino terminal residue
Protocol: (§1) N^α -acetylt[…] was determined as previously described [Lee et al., J. Biol. Chem. 263:14948-14955 (1988)]. Aliquots of the lysate or chromatographic fractions were added to 1.5 ml Eppendorf tubes containing a reaction mixture of 50 mM HEPES, pH 7.4, 150 mM KCl, 1 mM DTT, 25 μM [^3 H] acetyl coenzyme A (0.5 μCi) and 50 μM synthetic peptide with an adjusted final volume of 100 μl. The assay mixture was incubated at 30° C. for 30 min. The reaction was stopped by adding 17 μl of 0.5M acetic acid and chilled in an ice bath. The reaction samples were filtered through SP membrane discs (Cuno) (previously pre-swollen in 0.5M acetic acid), and then washed three times with 1 ml of 0.5M acetic acid on a Millipore 1225 sampling manifold. The partially dried membranes were placed in scintillation cocktail and counted with a Beckman LS 3801 scintillation counter. One unit of activity was defined as the amount of enzyme able to transfer 1 pmol of [^3 H] acetyl group from [^3 H] acetyl coenzyme A to synthetic peptide per min under standard enzyme assay conditions defined above.
(§2) In order to compare the relative specificity and activity of the methionine N^α -acetylt[…] (M-N^α -AT) of the present invention with the specificity and activity of the AAA1 N^α -acetyltransferase (N^α -AT) of Lee, F.-J. S., et al., J. Bacteriol. 171, (1989), U.S. Patent Application of John A. Smith, and Fang-Jen S. Lee, filed Oct. 25, 1989, entitled "ISOLATION OF STRAINS OF SAC[…] ALTERED N^α -ACETYLT[…]" (which references have been incorporated herein by reference) synthetic peptides were prepared. These peptides were assessed for their ability to serve as substrates for the two enzymes. In Table 6, the effect of the amino terminal amino acid on activity is investigated; in Table 7, the effect of the penultimate amino terminal amino acid on activity is investigated.

[2] = molecular target: T1, AAA1 N^α -acetyltransferase (N^α -AT) (Saccharomyces cerevisiae, UniProt P07347+P12945); experiment: Relative activity of N^α -AT for N^α -acetylation of synthetic peptides; assay type: biochemical; details: Table 7, influence of the penultimate amino terminal residue
T1 sequence (P12945 2-854 limits assumed): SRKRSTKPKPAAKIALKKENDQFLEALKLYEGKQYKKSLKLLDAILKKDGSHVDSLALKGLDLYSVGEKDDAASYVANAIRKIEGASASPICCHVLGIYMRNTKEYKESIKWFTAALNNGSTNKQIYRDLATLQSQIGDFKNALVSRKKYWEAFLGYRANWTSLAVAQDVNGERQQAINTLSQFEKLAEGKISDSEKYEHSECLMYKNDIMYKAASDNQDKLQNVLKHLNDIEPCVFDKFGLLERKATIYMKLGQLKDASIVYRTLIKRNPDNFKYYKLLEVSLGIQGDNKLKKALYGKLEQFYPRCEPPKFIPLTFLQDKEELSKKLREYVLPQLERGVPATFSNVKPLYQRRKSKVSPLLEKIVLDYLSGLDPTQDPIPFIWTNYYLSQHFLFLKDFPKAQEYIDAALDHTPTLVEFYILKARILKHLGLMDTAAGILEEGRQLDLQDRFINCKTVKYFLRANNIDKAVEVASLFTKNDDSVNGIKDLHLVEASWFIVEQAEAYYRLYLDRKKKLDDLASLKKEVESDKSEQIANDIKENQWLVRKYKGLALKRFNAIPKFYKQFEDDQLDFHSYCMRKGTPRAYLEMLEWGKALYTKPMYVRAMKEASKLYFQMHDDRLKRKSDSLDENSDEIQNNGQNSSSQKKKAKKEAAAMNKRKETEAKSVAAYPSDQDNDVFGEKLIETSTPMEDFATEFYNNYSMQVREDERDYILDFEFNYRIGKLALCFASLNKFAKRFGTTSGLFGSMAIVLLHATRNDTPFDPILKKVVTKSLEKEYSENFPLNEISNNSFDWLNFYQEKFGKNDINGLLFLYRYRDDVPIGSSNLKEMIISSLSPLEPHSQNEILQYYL
T1 sequence (P07347 1-238): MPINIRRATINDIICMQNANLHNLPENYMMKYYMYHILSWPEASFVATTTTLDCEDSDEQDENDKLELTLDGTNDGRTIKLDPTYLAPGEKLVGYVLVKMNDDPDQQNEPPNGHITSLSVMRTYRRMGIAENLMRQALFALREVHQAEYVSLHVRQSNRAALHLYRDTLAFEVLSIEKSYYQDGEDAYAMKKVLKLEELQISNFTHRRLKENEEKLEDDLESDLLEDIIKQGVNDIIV
Protocol: as §1, §2

With “SGPETQKGVIFYESHGKLEYKDIP (SGPETQKGVIFYESHGKLEYKDIP)” the “Activity (%) (mean activity ± S.D.) M-N^a -AT” value [1] was 0% and the “Activity (%) (mean activity ± S.D.) N^a -AT” value [2] was 84 ± 5%.
In the case of “SQPETQKGVIFYESHGKLEYKDIP (SQPETQKGVIFYESHGKLEYKDIP)”, the “Activity (%) (mean activity ± S.D.) M-N^a -AT” value [1] is reported as 0% and the “Activity (%) (mean activity ± S.D.) N^a -AT” value [2] is reported as 134 ± 7%.
For “SYPETQKGVIFYESHGKLEYKDIP (SYPETQKGVIFYESHGKLEYKDIP)”, the “Activity (%) (mean activity ± S.D.) M-N^a -AT” value [1] was 0% and the “Activity (%) (mean activity ± S.D.) N^a -AT” value [2] was 169 ± 8%.
“SNPETQKGVIFYESHGKLEYKDIP (SNPETQKGVIFYESHGKLEYKDIP)” was tested, and the “Activity (%) (mean activity ± S.D.) M-N^a -AT” value [1] was 0% and the “Activity (%) (mean activity ± S.D.) N^a -AT” value [2] was 116 ± 5%.
“STPETQKGVIFYESHGKLEYKDIP (STPETQKGVIFYESHGKLEYKDIP)” was tested, and the “Activity (%) (mean activity ± S.D.) M-N^a -AT” value [1] was 0% and the “Activity (%) (mean activity ± S.D.) N^a -AT” value [2] was 144 ± 8%.
In the case of “SFPETQKGVIFYESHGKLEYKDIP (SFPETQKGVIFYESHGKLEYKDIP)”, the “Activity (%) (mean activity ± S.D.) M-N^a -AT” value [1] is reported as 0% and the “Activity (%) (mean activity ± S.D.) N^a -AT” value [2] is reported as 118 ± 6%.
In the case of “SWPETQKGVIFYESHGKLEYKDIP (SWPETQKGVIFYESHGKLEYKDIP)”, the “Activity (%) (mean activity ± S.D.) M-N^a -AT” value [1] is reported as 0% and the “Activity (%) (mean activity ± S.D.) N^a -AT” value [2] is reported as 91 ± 5%.
For “SLPETQKGVIFYESHGKLEYKDIP (SLPETQKGVIFYESHGKLEYKDIP)”, the “Activity (%) (mean activity ± S.D.) M-N^a -AT” value [1] was 0% and the “Activity (%) (mean activity ± S.D.) N^a -AT” value [2] was 126 ± 5%.
In the case of “SAPETQKGVIFYESHGKLEYKDIP (SAPETQKGVIFYESHGKLEYKDIP)”, the “Activity (%) (mean activity ± S.D.) M-N^a -AT” value [1] is reported as 0% and the “Activity (%) (mean activity ± S.D.) N^a -AT” value [2] is reported as 168 ± 8%.
In the case of “SDPETQKGVIFYESHGKLEYKDIP (SDPETQKGVIFYESHGKLEYKDIP)”, the “Activity (%) (mean activity ± S.D.) M-N^a -AT” value [1] is reported as 0% and the “Activity (%) (mean activity ± S.D.) N^a -AT” value [2] is reported as 171 ± 9%.
In the case of “SKPETQKGVIFYESHGKLEYKDIP (SKPETQKGVIFYESHGKLEYKDIP)”, the “Activity (%) (mean activity ± S.D.) M-N^a -AT” value [1] is reported as 0% and the “Activity (%) (mean activity ± S.D.) N^a -AT” value [2] is reported as 151 ± 6%.
For “SHPETQKGVIFYESHGKLEYKDIP (SHPETQKGVIFYESHGKLEYKDIP)”, the “Activity (%) (mean activity ± S.D.) M-N^a -AT” value [1] was 0% and the “Activity (%) (mean activity ± S.D.) N^a -AT” value [2] was 125 ± 6%.
With “SCPETQKGVIFYESHGKLEYKDIP (SCPETQKGVIFYESHGKLEYKDIP)” the “Activity (%) (mean activity ± S.D.) M-N^a -AT” value [1] was 0% and the “Activity (%) (mean activity ± S.D.) N^a -AT” value [2] was 136 ± 7%.
With “SSPETQKGVIFYESHGKLEYKDIP (SSPETQKGVIFYESHGKLEYKDIP)” the “Activity (%) (mean activity ± S.D.) M-N^a -AT” value [1] was 0% and the “Activity (%) (mean activity ± S.D.) N^a -AT” value [2] was 140 ± 6%.
With “SRPETQKGVIFYESHGKLEYKDIP (SRPETQKGVIFYESHGKLEYKDIP)” the “Activity (%) (mean activity ± S.D.) M-N^a -AT” value [1] was 0% and the “Activity (%) (mean activity ± S.D.) N^a -AT” value [2] was 102 ± 5%.
In the case of “SPPETQKGVIFYESHGKLEYKDIP (SPPETQKGVIFYESHGKLEYKDIP)”, the “Activity (%) (mean activity ± S.D.) M-N^a -AT” value [1] is reported as 0% and the “Activity (%) (mean activity ± S.D.) N^a -AT” value [2] is reported as 0%.
